One assay has as its target Cholinesterase (Homo sapiens, UniProt P06276).
A further assay has as its target Acetylcholinesterase (Homo sapiens, UniProt P22303).

We go through 3 compounds from ChEMBL document CHEMBL1148525, “Discovery of huperzine A-tacrine hybrids as potent inhibitors of human cholinesterases targeting their midgorge recognition sites” (J Med Chem, 2006).

pKi: −log10 of the molar value. Bounds are passed on as bounds.

Sequence of Cholinesterase (P06276 whole entry): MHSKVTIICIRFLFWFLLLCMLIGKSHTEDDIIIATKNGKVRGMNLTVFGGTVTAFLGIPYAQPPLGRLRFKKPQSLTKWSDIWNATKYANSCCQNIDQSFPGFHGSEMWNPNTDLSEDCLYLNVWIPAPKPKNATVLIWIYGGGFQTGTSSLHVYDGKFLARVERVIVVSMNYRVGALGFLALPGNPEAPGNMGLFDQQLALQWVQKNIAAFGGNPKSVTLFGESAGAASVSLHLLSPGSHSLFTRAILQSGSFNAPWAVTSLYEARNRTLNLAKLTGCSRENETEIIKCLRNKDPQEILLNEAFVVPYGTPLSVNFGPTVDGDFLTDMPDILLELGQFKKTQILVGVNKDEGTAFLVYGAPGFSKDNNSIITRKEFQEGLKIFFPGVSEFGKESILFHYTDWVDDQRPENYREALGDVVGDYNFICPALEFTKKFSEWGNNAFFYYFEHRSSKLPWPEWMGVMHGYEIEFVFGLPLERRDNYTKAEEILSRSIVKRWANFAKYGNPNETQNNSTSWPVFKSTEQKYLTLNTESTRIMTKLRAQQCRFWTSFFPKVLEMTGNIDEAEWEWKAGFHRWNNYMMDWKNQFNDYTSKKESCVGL
Sequence of Acetylcholinesterase (P22303 whole entry): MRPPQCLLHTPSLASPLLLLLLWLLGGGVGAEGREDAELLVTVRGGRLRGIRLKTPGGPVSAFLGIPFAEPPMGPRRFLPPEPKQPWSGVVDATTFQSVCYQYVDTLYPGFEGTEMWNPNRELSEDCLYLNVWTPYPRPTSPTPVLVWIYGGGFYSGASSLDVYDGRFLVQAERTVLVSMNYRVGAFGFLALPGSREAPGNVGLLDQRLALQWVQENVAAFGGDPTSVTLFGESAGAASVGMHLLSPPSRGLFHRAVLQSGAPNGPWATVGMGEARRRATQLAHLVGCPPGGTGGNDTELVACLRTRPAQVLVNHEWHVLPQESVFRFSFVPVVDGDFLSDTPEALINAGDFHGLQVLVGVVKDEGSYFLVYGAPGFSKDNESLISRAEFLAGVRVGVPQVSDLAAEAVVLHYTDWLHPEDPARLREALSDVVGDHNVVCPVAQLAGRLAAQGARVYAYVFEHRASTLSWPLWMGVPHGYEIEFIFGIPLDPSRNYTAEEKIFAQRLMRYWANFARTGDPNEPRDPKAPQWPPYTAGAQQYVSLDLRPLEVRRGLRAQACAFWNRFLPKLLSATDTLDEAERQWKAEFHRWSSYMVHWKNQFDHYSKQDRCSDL

A word on the pKi: it is −log10 of the Ki, conventionally taken in molar units. Take `C/C=C1\C2C=C(C)C[C@]1(N)CC(NCCCCCCCNc1c3c(nc4ccccc14)CCCC3)C2` (stereo not given in full): the pKi at Cholinesterase was 7.51; on Acetylcholinesterase, 7.80.

Regarding `C/C=C1\C2C=C(C)C[C@]1(N)CC(NCCCCCCCNc1c3c(nc4ccccc14)CCCC3)C2(C)C` (stereo not given in full), the pKi on Cholinesterase was 7.68; at Acetylcholinesterase, 7.78.

Take `C/C=C1\[C@H]2C=C(C)C[C@]1(N)c1ccc(=O)[nH]c1C2` [HUPERZINE A]: at Cholinesterase, the pKi is below 6.00.
